ChEMBL document CHEMBL3774308, “KATching-Up on Small Molecule Modulators of Lysine Acetyltransferases” (J Med Chem, 2016)

Tests used:
[1] = target: Histone acetyltransferase p300 (Homo sapiens, UniProt Q09472); test: Inhibition of human p300 expressed in competent escherichia coli BL21(DE3)-R3-pRARE2 cells by isothermal titration calorimetry
CREB-binding protein = CREB-binding protein (Homo sapiens, UniProt Q92793); test: Inhibition of human CREBBP expressed in competent escherichia coli BL21(DE3)-R3-pRARE2 cells by isothermal titration calorimetry
Chain of CREB-binding protein (Q92793 whole entry): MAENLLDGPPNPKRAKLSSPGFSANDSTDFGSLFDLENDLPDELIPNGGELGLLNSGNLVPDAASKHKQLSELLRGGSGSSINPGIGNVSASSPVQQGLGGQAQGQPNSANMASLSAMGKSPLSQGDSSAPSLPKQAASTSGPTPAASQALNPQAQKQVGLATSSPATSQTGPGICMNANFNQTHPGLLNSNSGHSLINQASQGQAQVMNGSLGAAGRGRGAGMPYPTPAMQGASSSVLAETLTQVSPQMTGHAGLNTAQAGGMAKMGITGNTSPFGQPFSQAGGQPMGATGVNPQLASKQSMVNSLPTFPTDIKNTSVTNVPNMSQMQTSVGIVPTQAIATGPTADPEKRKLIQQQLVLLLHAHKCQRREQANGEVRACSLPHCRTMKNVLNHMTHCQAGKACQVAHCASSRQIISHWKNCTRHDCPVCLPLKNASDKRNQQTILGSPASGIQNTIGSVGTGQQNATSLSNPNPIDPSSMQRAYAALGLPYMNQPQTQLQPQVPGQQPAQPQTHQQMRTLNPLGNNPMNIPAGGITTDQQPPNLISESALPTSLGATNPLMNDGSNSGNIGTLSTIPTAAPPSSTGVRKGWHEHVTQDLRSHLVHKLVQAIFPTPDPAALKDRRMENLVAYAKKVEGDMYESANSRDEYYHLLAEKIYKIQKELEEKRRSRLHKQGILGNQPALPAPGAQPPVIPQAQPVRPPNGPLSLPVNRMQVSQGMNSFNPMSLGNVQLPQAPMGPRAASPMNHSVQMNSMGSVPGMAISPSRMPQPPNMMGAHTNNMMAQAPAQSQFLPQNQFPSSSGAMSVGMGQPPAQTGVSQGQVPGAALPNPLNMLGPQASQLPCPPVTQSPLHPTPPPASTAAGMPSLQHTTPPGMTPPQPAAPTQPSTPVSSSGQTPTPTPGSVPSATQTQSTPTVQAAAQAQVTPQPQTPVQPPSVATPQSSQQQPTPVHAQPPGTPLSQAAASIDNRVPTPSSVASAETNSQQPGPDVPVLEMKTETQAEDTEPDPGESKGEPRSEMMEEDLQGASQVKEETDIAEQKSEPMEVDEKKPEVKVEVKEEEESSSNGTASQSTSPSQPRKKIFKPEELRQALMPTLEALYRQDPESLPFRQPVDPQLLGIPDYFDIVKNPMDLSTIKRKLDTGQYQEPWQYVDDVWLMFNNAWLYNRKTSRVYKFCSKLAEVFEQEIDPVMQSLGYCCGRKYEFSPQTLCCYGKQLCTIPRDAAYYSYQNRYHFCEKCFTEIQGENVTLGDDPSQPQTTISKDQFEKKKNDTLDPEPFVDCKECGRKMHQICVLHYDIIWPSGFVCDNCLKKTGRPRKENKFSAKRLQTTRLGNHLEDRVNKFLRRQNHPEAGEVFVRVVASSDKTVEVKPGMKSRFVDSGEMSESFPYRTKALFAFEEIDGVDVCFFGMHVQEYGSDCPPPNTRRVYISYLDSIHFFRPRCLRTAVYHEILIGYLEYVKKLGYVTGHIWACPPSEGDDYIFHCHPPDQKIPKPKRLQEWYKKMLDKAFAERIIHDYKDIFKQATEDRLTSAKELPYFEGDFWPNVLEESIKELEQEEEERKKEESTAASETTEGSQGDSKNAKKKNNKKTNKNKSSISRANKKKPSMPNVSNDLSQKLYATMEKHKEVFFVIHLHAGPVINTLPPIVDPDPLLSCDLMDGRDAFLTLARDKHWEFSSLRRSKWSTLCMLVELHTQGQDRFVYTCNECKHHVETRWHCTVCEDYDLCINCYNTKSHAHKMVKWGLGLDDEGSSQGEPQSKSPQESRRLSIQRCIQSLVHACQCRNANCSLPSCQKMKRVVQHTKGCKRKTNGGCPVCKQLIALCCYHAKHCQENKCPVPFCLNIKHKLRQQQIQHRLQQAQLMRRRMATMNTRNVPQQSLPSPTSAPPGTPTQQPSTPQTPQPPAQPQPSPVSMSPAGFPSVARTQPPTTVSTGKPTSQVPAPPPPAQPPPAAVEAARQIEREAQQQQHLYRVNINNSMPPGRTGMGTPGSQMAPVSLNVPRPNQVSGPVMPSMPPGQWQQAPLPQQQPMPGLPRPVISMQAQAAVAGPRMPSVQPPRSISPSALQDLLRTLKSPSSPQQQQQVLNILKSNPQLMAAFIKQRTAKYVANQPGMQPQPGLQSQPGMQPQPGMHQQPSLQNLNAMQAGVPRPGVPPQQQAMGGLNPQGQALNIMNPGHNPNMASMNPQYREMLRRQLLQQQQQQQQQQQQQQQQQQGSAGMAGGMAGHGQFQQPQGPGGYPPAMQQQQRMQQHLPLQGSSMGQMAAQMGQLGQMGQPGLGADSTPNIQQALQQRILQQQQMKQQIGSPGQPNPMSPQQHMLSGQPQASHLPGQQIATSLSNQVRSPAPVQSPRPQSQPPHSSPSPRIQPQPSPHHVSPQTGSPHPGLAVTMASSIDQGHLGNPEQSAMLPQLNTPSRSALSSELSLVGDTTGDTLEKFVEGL

Chain of Histone acetyltransferase p300 (Q09472 whole entry): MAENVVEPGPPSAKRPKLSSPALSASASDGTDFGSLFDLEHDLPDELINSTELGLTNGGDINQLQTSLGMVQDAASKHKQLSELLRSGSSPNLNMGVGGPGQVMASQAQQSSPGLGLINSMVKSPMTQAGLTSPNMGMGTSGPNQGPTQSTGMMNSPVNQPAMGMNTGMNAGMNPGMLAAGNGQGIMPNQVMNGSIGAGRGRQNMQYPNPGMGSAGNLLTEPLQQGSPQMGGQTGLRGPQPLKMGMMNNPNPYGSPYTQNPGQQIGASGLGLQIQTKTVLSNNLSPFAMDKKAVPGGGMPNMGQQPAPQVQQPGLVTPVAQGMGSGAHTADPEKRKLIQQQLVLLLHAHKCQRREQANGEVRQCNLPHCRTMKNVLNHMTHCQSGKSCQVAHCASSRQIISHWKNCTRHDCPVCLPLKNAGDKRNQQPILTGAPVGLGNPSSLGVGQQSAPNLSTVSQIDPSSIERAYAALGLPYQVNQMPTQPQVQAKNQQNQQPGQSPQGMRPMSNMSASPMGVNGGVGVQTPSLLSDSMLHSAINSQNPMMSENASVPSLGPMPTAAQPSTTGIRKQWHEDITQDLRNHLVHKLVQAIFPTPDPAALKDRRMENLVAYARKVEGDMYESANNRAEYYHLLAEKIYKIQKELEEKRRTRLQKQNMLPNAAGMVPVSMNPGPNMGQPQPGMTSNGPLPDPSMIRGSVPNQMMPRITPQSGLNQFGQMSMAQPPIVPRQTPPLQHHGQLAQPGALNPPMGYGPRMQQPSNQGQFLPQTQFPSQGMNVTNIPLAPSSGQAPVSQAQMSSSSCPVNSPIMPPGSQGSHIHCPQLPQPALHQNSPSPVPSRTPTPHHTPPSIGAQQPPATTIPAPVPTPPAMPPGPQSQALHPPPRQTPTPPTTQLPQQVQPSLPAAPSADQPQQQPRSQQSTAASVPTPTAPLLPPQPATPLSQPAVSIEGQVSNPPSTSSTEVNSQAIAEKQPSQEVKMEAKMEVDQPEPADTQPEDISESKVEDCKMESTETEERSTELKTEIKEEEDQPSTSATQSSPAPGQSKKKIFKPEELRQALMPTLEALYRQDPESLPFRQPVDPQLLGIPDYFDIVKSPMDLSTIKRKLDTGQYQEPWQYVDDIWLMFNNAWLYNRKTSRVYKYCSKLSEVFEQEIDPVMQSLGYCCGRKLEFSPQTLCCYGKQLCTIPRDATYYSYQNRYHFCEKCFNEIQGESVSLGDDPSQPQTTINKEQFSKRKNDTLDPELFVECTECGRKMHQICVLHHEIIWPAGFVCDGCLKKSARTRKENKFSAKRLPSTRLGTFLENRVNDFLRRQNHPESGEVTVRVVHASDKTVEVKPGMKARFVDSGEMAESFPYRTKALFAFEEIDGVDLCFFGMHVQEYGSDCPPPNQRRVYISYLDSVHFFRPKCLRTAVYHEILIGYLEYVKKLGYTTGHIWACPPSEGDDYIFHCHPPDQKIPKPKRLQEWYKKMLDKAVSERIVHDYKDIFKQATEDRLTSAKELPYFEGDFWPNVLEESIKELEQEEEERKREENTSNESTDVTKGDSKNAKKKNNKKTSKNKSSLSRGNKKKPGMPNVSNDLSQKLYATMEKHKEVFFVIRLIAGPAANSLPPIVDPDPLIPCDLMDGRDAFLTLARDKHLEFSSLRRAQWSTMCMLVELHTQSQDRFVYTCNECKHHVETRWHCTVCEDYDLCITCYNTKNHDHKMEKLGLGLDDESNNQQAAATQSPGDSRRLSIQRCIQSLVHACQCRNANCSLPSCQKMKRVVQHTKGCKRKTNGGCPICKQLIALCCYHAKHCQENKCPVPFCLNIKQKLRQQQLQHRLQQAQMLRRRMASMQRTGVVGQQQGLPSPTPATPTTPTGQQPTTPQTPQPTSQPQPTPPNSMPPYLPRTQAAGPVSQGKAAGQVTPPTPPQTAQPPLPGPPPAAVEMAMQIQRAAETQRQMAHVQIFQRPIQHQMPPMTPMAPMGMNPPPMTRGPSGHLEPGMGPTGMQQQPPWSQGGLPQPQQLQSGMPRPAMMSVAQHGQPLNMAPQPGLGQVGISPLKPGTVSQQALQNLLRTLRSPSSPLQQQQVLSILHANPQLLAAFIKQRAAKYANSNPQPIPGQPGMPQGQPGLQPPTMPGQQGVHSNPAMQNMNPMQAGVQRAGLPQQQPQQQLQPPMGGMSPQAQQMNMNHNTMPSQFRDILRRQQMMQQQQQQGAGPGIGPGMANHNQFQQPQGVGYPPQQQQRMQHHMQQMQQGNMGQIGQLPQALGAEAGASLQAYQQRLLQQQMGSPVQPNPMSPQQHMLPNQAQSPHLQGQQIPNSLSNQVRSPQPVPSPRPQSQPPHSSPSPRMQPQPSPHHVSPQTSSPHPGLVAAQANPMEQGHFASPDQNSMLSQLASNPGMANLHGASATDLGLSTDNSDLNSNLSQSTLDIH

CCC(=O)N1CCOc2c(cc(-c3ccc(OC)c(OC)c3)cc2OC[C@H]2CCCN(C)C2)C1
Kd [1]: 167 nM
Kd (CREB-binding protein): 151 nM
